# Assay results published in the supplement of paper PMC10307832.
# Compound: Cc1ccc(NC(=O)c2ccc(CN3CCN(C)CC3)cc2)cc1Nc1nc(-c2cccnc2)cs1 [Masitinib] + N=C(N)NC(=N)NCCc1ccccc1 [Phenformin] (partner 250 µM)
# Assay: relative viability (nuclei count vs DMSO), 5 days (fraction); higher = more cells survive
# Conditions: first compound 0.01 µM
# Method in brief: (§1)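 Relative viability is defined as nuclei in treated wells over nuclei in vehicle wells. Duplicate plates were run and medians reported. Lung cancer cell lines in 1536-well plates were dosed by pin tool one day after seeding, with one drug or with a fixed anchor-drug dose plus five library-drug doses (not always all listed) in √10 steps, and nuclei were counted after 5 days.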
row,Cell Line,relative viability
1,NCI-H596,0.836
2,NCI-H2228,0.347
3,EMC-BAC-2,0.485
4,NCI-H2087,0.347
5,NCI-H647,0.549
6,LK-2,0.481
7,NCI-H2126,0.515
8,NCI-H2342,0.71
9,NCI-H1793,0.329
10,H3255,0.388
11,COR-L23,0.415
12,COR-L 105,0.505
13,LOU-NH91,0.656
14,ChaGo-K-1,0.509
15,NCI-H358,0.316
16,HOP-62,0.55
17,HCC-44,0.236
18,A549,0.148
19,SW 900,0.652
20,LXF-289,0.461
21,BEN,0.288
22,NCI-H1563,0.631

# Same assay, conditions: first compound 0.03162 µM
row,Cell Line,relative viability
1,NCI-H1623,0.494
2,NCI-H838,0.498
3,NCI-H1651,0.29
4,NCI-H1734,0.423
5,NCI-H2009,0.48
6,LU99A,0.807
7,PC-14,0.633
8,LCLC-103H,0.348
9,NCI-H596,0.769
10,NCI-H2228,0.302
11,EMC-BAC-2,0.494
12,NCI-H2087,0.393
13,HCC-366,0.59
14,NCI-H647,0.521
15,LK-2,0.347
16,NCI-H2126,0.548

row,Cell Line,relative viability
1,NCI-H2342,0.567
2,NCI-H1793,0.357
3,H3255,0.277
4,COR-L23,0.434
5,COR-L 105,0.542
6,LOU-NH91,0.606
7,ChaGo-K-1,0.455
8,NCI-H358,0.346
9,NCI-H3122,0.396
10,HOP-62,0.744
11,HCC-44,0.188
12,A549,0.186
13,SW 900,0.609
14,LXF-289,0.514
15,HARA,0.417
16,NCI-H1563,0.701

# Same assay, conditions: first compound 0.1 µM
row,Cell Line,relative viability
1,NCI-H522,0.635
2,NCI-H1623,0.564
3,NCI-H838,0.521
4,NCI-H1651,0.337
5,NCI-H1734,0.493
6,NCI-H2009,0.463
7,LU99A,0.859
8,PC-14,0.572
9,LCLC-103H,0.306
10,NCI-H596,0.824
11,NCI-H2228,0.335
12,EMC-BAC-2,0.524
13,NCI-H2087,0.534
14,NCI-H647,0.526
15,LK-2,0.423
16,NCI-H2126,0.552

row,Cell Line,relative viability
1,NCI-H2342,0.615
2,NCI-H1793,0.405
3,H3255,0.374
4,COR-L23,0.507
5,COR-L 105,0.604
6,LOU-NH91,0.683
7,ChaGo-K-1,0.511
8,NCI-H358,0.359
9,HOP-62,0.668
10,HCC-44,0.213
11,A549,0.153
12,SW 900,0.706
13,LXF-289,0.477
14,BEN,0.268
15,HARA,0.399
16,NCI-H1563,0.689

# Same assay, conditions: first compound 0.3162 µM
row,Cell Line,relative viability
1,NCI-H522,0.775
2,NCI-H1623,0.52
3,NCI-H838,0.508
4,NCI-H1651,0.375
5,NCI-H1734,0.379
6,NCI-H2009,0.427
7,LU99A,0.856
8,PC-14,0.507
9,LCLC-103H,0.344
10,NCI-H596,0.831
11,NCI-H2228,0.398
12,EMC-BAC-2,0.53
13,NCI-H2087,0.5
14,HCC-366,0.572
15,NCI-H647,0.57
16,LK-2,0.535
17,NCI-H2126,0.507

row,Cell Line,relative viability
1,NCI-H2342,0.614
2,NCI-H1793,0.349
3,H3255,0.315
4,COR-L23,0.428
5,COR-L 105,0.515
6,LOU-NH91,0.54
7,ChaGo-K-1,0.467
8,NCI-H358,0.363
9,NCI-H3122,0.315
10,HOP-62,0.827
11,HCC-44,0.323
12,A549,0.198
13,SW 900,0.448
14,LXF-289,0.522
15,BEN,0.272
16,HARA,0.398
17,NCI-H1563,0.684

# Same assay, conditions: first compound 1 µM
row,Cell Line,relative viability
1,NCI-H522,0.714
2,NCI-H1623,0.533
3,NCI-H838,0.569
4,NCI-H1651,0.31
5,NCI-H1734,0.339
6,NCI-H2009,0.381
7,LU99A,0.703
8,PC-14,0.506
9,LCLC-103H,0.293
10,NCI-H596,0.691
11,NCI-H2228,0.215
12,EMC-BAC-2,0.457
13,NCI-H2087,0.393
14,HCC-366,0.575
15,NCI-H647,0.584
16,LK-2,0.43
17,NCI-H2126,0.503

row,Cell Line,relative viability
1,NCI-H2342,0.573
2,NCI-H1793,0.262
3,H3255,0.407
4,COR-L23,0.417
5,COR-L 105,0.425
6,LOU-NH91,0.605
7,ChaGo-K-1,0.411
8,NCI-H358,0.327
9,NCI-H3122,0.312
10,HOP-62,0.691
11,HCC-44,0.185
12,A549,0.12
13,SW 900,0.436
14,LXF-289,0.451
15,BEN,0.253
16,HARA,0.424
17,NCI-H1563,0.643

# Compound: CC1=CC(=CC=C1)NC2=NC(=CS2)C3=CC=NC=C3 + COc1cccc2cc(-c3nc([C@H]4CC[C@H](C(=O)O)CC4)n4ncnc(N)c34)[nH]c12 [OSI-027] (partner 0.5 µM)
# Assay: as above
# Conditions: first compound 0.08 µM
# Method in brief: as §1
row,Cell Line,relative viability
1,NCI-H522,0.71
2,NCI-H1623,0.444
3,NCI-H838,0.318
4,NCI-H1651,0.71
5,NCI-H1734,0.481
6,NCI-H2009,0.589
7,LU99A,0.271
8,PC-14,0.712
9,LCLC-103H,0.389
10,NCI-H596,0.652
